Reference: patent publication US9540343B2 (Gilead Sciences, Inc., priority 2011, dated 2017)

Experiments:
HIV-IIIb = assay: Test A: Antiviral assay in MT4 cells; format: cell-based, HIV-1; settings: MT-4 cells infected with HIV-IIIb, 5 days, CellTiter-Glo; for inhibition at 2 µM: Human immunodeficiency virus 1, IIIB, MT4, 120 h, read-out: % inhibition at 2 μM, percent inhibition of virus-induced cell killing, from dose response curve at 2 uM drug; for % inhibition at 2 μM: percent inhibition of virus-induced cell killing, from dose response curve at 2 uM drug
in vitro = assay: in vitro
In short: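 Cytoprotection read-out: CellTiter-Glo chemiluminescence after 5 days at 37 °C of HIV-IIIb-infected MT-4 cells (m.o.i. 0.003) with compound in 10-point 3-fold dilutions, quadruplicate, 10% FBS. Cytotoxicity (CC50) measured identically without virus.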

[1] = human, uninfected MT-4 cells, CC50 (nM), same protocol as Test A, CellTiter-Glo

SMILES | inhibition at 2 µM (HIV-IIIb) [%] | CC50 at 5 days (in vitro; [1]) [nM] | CC50 at 5 days (in vitro; human, CC50 (nM), uninfected MT-4 cells, same protocol as Test A, CellTiter-Glo) [nM] | % inhibition at 2 μM (HIV-IIIb) [%]
Cn1ncc2ccc(-c3cccnc3[C@H](Cc3cc(F)cc(F)c3)NC(=O)Cn3nc(C(F)F)c4c3C(F)(F)C3CC43)cc21 (stereo partly drawn) [Example 73, (S)—N-(1-(3-(1-methylindazole-6-yl)-pyridin-2-yl)-2-(3,5-difluorophenyl)ethyl)-2-(3-(difluoromethyl)-5,6-dihydro-4,5-(methano)-6,6-difluoro-cyclopenta[c]pyrazol-1(4H)-yl)acetamide] | 15 | 9790 | – | –
CN(C)C(=O)c1cccc(-c2cccnc2[C@H](Cc2cc(F)cc(F)c2)NC(=O)Cc2c[nH]c3ccc(O)cc23)c1 [Example 48, (S)-3-(2-(2-(3,5-difluorophenyl)-1-(2-(5-hydroxy-1H-indol-3-yl)acetamido)ethyl)pyridin-3-yl)-N,N-dimethylbenzamide] | 74 | > 53000 | – | –
CC(=O)c1cn(CC(=O)N[C@@H](Cc2cc(F)cc(F)c2)c2ncccc2-c2cccc(C(N)=O)c2)c2ccccc12 [Example 500, (S)-3-(2-(1-(2-(3-acetyl-1H-indol-1-yl)acetamido)-2-(3,5-difluorophenyl)ethyl)pyridin-3-yl)benzamide] | 59 | – | 24300 | –
Cc1cccc2[nH]cc(CC(=O)N[C@@H](Cc3cc(F)cc(F)c3)c3ncccc3-c3ccc(Cl)cc3)c12 [Example 534, (S)—N-(1-(3-(4-chlorophenyl)pyridin-2-yl)-2-(3,5-difluorophenyl)ethyl)-2-(4-methyl-1H-indol-3-yl)acetamide] | 29 | 9820 | – | –
O=C(Cn1nc(C(F)F)cc1C(F)F)N[C@@H](Cc1cc(F)cc(F)c1)c1ncccc1-c1ccc(S(=O)(=O)N2CCOCC2)cc1 [Example 539, (S)-2-(3,5-bis(difluoromethyl)-1H-pyrazol-1-yl)-N-(2-(3,5-difluorophenyl)-1-(3-(4-(morpholinosulfonyl)phenyl)pyridin-2-yl)ethyl)acetamide] | 10 | 20800 | – | –
NC(=O)c1cc(-c2cccnc2[C@H](Cc2cc(F)cc(F)c2)NC(=O)Cn2nc3c(c2C(F)(F)F)CSC3)ccc1F [Example 261, (S)-5-(2-(2-(3,5-difluorophenyl)-1-(2-(3-(trifluoromethyl)-4,6-dihydro-2H-thieno[3,4-c]pyrazol-2-yl)acetamido)ethyl)pyridin-3-yl)-2-fluorobenzamide] | 6 | 21200 | – | –
CNC(=O)c1ccc(-c2cccnc2[C@H](Cc2cc(F)cc(F)c2)NC(=O)Cc2c[nH]c3ccc(O)cc23)cc1 [Example 45, (S)-4-(2-(2-(3,5-difluorophenyl)-1-(2-(5-hydroxy-1H-indol-3-yl)acetamido)ethyl)pyridin-3-yl)-N-methylbenzamide] | 32 | > 53000 | – | –
NC(=O)c1cc(-c2cccnc2[C@H](Cc2cc(F)cc(F)c2)NC(=O)Cn2c(C(F)(F)F)cc3ccccc32)ccc1F [Example 599, (S)-5-(2-(2-(3,5-difluorophenyl)-1-(2-(2-(trifluoromethyl)-1H-indol-1-yl)acetamido)ethyl)pyridin-3-yl)-2-fluorobenzamide] | 2 | 31600 | – | –
NC(=O)c1cc(-c2cccnc2[C@H](Cc2cc(F)cc(F)c2)NC(=O)Cn2nc(C(F)(F)F)c3c2CCC3=O)ccc1F [Example 492B, (S)-5-(2-(2-(3,5-difluorophenyl)-1-(2-(4-oxo-3-(trifluoromethyl)-5,6-dihydrocyclopenta[c]pyrazol-1(4H)-yl)acetamido)ethyl)pyridin-3-yl)-2-fluorobenzamide] | 2 | > 53200 | – | –
O=C(N[C@@H](Cc1cc(F)cc(F)c1)c1ncccc1-c1ccc(Cl)cc1)C(c1c[nH]c2ccc(F)cc12)C(F)(F)F (single isomer, unassigned) [Example 36F] | – | 7200 | – | 15
CC(C)c1cc(C(F)(F)F)nn1CC(=O)N[C@@H](Cc1cc(F)cc(F)c1)c1ncccc1-c1ccc(F)c(C(N)=O)c1 [Example 252, (S)-5-(2-(2-(3,5-difluorophenyl)-1-(2-(5-isopropyl-3-(trifluoromethyl)-1H-pyrazol-1-yl)acetamido)ethyl)pyridin-3-yl)-2-fluorobenzamide] | 18 | 19200 | – | –
Cc1cc2ccn(CC(=O)N[C@@H](Cc3cc(F)cc(F)c3)c3ncccc3-c3ccc(F)c(C(N)=O)c3)c2cc1C [Example 498F, (S)-5-(2-(2-(3,5-difluorophenyl)-1-(2-(5,6-dimethyl-1H-indol-1-yl)acetamido)ethyl)pyridin-3-yl)-2-fluorobenzamide] | 60 | 13200 | – | –
COc1ccc2cccc(CC(=O)N[C@@H](Cc3cc(F)cc(F)c3)c3ncccc3-c3ccc(F)c(C#N)c3)c2c1 [Example 373, (S)—N-(1-(3-(3-cyano-4-fluorophenyl)pyridin-2-yl)-2-(3,5-difluorophenyl)ethyl)-2-(7-methoxynaphthalen-1-yl)acetamide] | 0 | 8140 | – | –
NC(=O)c1cc(-c2cccnc2[C@H](Cc2cc(F)cc(F)c2)NC(=O)C(CO)c2ccccc2)ccc1F (stereo partly drawn) [Example 578, 5-(2-((1S)-2-(3,5-difluorophenyl)-1-(3-hydroxy-2-phenylpropanamido)ethyl)pyridin-3-yl)-2-fluorobenzamide] | 15 | > 53200 | – | –
O=C(Cc1c[nH]c2ccc(F)cc12)N[C@@H](Cc1cc(F)cc(F)c1)c1ncccc1-c1ccc(-c2ccccc2)cc1 [Example 416, (S)—N-(1-(3-(biphenyl-4-yl)pyridin-2-yl)-2-(3,5-difluorophenyl)ethyl)-2-(5-fluoro-1H-indol-3-yl)acetamide] | 0 | 10300 | – | –
NC(=O)c1cc(-c2cccnc2[C@H](Cc2cc(F)cc(F)c2)NC(=O)Cn2nc(C(F)(F)F)c3c2CC(O)C3)ccc1F (some centres unmarked) [Example 265] | 74 | > 53200 | – | –
O=C(Cc1c[nH]c2ccc(F)cc12)N[C@@H](Cc1cc(F)cc(F)c1)c1ncccc1-c1ccc(Cl)c(Cl)c1 [Example 396, (S)—N-(1-(3-(3,4-dichlorophenyl)pyridin-2-yl)-2-(3,5-difluorophenyl)ethyl)-2-(5-fluoro-1H-indol-3-yl)acetamide] | 39 | 10000 | – | –
NC(=O)c1cc(-c2cccnc2[C@H](Cc2cc(F)cc(F)c2)NC(=O)Cn2cnc3cc(Cl)c(Cl)cc32)ccc1F [Example 518, (S)-5-(2-(1-(2-(5,6-dichloro-1H-benzo[d]imidazol-1-yl)acetamido)-2-(3,5-difluorophenyl)ethyl)pyridin-3-yl)-2-fluorobenzamide] | 11 | 10500 | – | –
O=C(Cn1nc(C(F)F)c2c1C(F)(F)C1CC21)N[C@@H](Cc1cc(F)cc(F)c1)c1ncccc1-c1ccc2nccn2c1 (stereo partly drawn) [Example 438, (S)—N-(1-(3-(imidazo[1,2-a]pyridine-6-yl)-pyridin-2-yl)-2-(3,5-difluorophenyl)ethyl)-2-(3-(difluoromethyl)-5,6-dihydro-4,5-(methano)-6,6-difluoro-cyclopenta[c]pyrazol-1(4H)-yl)acetamide] | 81 | 12100 | – | –
CC(C)c1cc(C(F)(F)F)n(CC(=O)N[C@@H](Cc2cc(F)cc(F)c2)c2ncccc2-c2ccc(F)c(C(N)=O)c2)n1 [Example 236D, (S)-5-(2-(2-(3,5-difluorophenyl)-1-(2-(3-isopropyl-5-(trifluoromethyl)-1H-pyrazol-1-yl)acetamido)ethyl)pyridin-3-yl)-2-fluorobenzamide] | 15 | 25600 | – | –
CC(C)Oc1ccc(-c2cccnc2[C@H](Cc2cc(F)cc(F)c2)NC(=O)Cn2nc(C(F)F)c3c2C(F)(F)C2CC32)cc1 (stereo partly drawn) [Example 224, 2-(3-(difluoromethyl)-5,5-difluoro-3b,4,4a,5-tetrahydro-1H-cyclopropa[3,4]cyclopenta[1,2-c]pyrazol-1-yl)-N—((S)-2-(3,5-difluorophenyl)-1-(3-(4-isopropoxyphenyl)pyridin-2-yl)ethyl)acetamide] | 17 | 20400 | – | –
NC(=O)c1cc(-c2cccnc2[C@H](Cc2cc(F)cc(F)c2)NC(=O)C(c2ccccc2)C2CCCC2)ccc1F (single isomer, unassigned) [Example 515] | – | 9460 | – | 0
COCCOc1ccc(-c2cccnc2[C@H](Cc2cc(F)cc(F)c2)NC(=O)Cn2nc(C(F)F)c3c2C(F)(F)C2CC32)cc1 (stereo partly drawn) [Example 217, 2-(3-(difluoromethyl)-5,5-difluoro-3b,4,4a,5-tetrahydro-1H-cyclopropa[3,4]cyclopenta[1,2-c]pyrazol-1-yl)-N—((S)-2-(3,5-difluorophenyl)-1-(3-(4-(2-methoxyethoxy)phenyl)pyridin-2-yl)ethyl)acetamide] | 92 | 29600 | – | –
CC1(C)OB(c2cn(CC(=O)N[C@@H](Cc3cc(F)cc(F)c3)c3ncccc3-c3ccc(F)c(C(N)=O)c3)nc2C(F)(F)F)OC1(C)C [Example 451B, (S)-5-(2-(2-(3,5-difluorophenyl)-1-(2-(4-(4,4,5,5-tetramethyl-1,3,2-dioxaborolan-2-yl)-3-(trifluoromethyl)-1H-pyrazol-1-yl)acetamido)ethyl)pyridin-3-yl)-2-fluorobenzamide] | 1 | 37100 | – | –
NC(=O)c1cc(-c2cccnc2[C@H](Cc2cc(F)cc(F)c2)NC(=O)Cn2nc(C(F)(F)F)c3c2C(O)C2CC32)ccc1F (stereo partly drawn) [Example 154, 5-(2-((1S)-2-(3,5-difluorophenyl)-1-(2-(5-hydroxy-3-(trifluoromethyl)-3b,4,4a,5-tetrahydro-1H-cyclopropa[3,4]cyclopenta[1,2-c]pyrazol-1-yl)acetamido)ethyl)pyridin-3-yl)-2-fluorobenzamide] | – | 36800 | – | 90
